Experiments:
[1] = target: Bromodomain-containing protein 3 (Homo sapiens, UniProt Q15059); assay: Inhibition of BRD3 (unknown origin)
[2] = target: Bromodomain-containing protein 4 (Homo sapiens, UniProt O60885); assay: Inhibition of BRD4 (unknown origin)
[3] = target: Bromodomain testis-specific protein (Homo sapiens, UniProt Q58F21); assay: Inhibition of BRDT (unknown origin)
[4] = target: Tyrosine-protein kinase ABL1 (Homo sapiens, UniProt P00519); assay: Inhibition of Abl (unknown origin)
[5] = target: RAC-alpha serine/threonine-protein kinase (Homo sapiens, UniProt P31749); assay: Inhibition of Akt1 (unknown origin)
RAC-alpha serine/threonine-protein kinase, sequence (P31749 whole entry): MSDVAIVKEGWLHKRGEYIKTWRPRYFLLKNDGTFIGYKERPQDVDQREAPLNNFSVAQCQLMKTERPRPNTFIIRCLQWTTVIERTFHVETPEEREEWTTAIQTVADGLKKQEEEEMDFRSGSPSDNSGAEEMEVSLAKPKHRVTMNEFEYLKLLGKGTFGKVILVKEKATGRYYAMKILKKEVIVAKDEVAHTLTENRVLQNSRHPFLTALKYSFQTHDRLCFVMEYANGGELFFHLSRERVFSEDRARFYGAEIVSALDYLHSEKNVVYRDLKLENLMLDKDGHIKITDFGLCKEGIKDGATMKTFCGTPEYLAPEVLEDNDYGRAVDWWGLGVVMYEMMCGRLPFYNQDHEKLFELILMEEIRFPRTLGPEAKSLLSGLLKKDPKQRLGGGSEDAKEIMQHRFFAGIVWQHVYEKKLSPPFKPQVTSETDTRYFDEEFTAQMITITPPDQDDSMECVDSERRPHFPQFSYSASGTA

[6] = target: Calcium/calmodulin-dependent protein kinase type II subunit alpha (Homo sapiens, UniProt Q9UQM7); assay: Inhibition of CAMK2A (unknown origin)
[7] = target: Cyclin-dependent kinase 11B (Homo sapiens, UniProt P21127); assay: Inhibition of CDK11 (unknown origin)
[8] = target: Dual specificity protein kinase CLK2 (Homo sapiens, UniProt P49760); assay: Inhibition of CLK2 (unknown origin)
[9] = target: Dual specificity tyrosine-phosphorylation-regulated kinase 1B (Homo sapiens, UniProt Q9Y463); assay: Inhibition of DYRK1B (unknown origin)
[10] = target: Dual specificity tyrosine-phosphorylation-regulated kinase 1A (Homo sapiens, UniProt Q13627); assay: Inhibition of Dyrk1A (unknown origin)
[11] = target: G protein-coupled receptor kinase 5 (Homo sapiens, UniProt P34947); assay: Inhibition of GRK5 (unknown origin)
[12] = target: Leukocyte tyrosine kinase receptor (Homo sapiens, UniProt P29376); assay: Inhibition of LTK (unknown origin)
Leukocyte tyrosine kinase receptor, sequence (P29376 whole entry): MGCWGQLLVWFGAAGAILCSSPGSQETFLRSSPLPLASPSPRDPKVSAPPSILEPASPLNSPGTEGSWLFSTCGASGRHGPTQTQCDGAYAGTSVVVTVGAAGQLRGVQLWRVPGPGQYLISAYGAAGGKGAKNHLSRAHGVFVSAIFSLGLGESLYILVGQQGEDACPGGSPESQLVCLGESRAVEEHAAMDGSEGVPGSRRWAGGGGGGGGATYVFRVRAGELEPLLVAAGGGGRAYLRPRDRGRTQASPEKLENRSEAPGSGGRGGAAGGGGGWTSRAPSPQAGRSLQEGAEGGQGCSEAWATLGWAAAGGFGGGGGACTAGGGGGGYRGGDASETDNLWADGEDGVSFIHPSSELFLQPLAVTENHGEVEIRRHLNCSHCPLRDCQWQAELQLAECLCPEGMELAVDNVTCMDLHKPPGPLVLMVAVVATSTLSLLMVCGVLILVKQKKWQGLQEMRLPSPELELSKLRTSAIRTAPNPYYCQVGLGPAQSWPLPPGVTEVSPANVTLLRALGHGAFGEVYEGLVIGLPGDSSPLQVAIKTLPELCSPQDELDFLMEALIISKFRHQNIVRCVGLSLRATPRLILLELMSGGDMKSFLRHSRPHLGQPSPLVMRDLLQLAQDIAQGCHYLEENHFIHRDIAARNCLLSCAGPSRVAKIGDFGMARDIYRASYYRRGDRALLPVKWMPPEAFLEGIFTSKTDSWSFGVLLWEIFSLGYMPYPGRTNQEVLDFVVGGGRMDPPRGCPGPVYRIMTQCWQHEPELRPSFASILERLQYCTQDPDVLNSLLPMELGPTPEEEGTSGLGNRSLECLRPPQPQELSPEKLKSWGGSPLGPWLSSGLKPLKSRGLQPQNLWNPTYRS

[13] = target: Mitogen-activated protein kinase kinase kinase 10 (Homo sapiens, UniProt Q02779); assay: Inhibition of MAP3K10 (unknown origin)
Mitogen-activated protein kinase kinase kinase 10, sequence (Q02779 whole entry): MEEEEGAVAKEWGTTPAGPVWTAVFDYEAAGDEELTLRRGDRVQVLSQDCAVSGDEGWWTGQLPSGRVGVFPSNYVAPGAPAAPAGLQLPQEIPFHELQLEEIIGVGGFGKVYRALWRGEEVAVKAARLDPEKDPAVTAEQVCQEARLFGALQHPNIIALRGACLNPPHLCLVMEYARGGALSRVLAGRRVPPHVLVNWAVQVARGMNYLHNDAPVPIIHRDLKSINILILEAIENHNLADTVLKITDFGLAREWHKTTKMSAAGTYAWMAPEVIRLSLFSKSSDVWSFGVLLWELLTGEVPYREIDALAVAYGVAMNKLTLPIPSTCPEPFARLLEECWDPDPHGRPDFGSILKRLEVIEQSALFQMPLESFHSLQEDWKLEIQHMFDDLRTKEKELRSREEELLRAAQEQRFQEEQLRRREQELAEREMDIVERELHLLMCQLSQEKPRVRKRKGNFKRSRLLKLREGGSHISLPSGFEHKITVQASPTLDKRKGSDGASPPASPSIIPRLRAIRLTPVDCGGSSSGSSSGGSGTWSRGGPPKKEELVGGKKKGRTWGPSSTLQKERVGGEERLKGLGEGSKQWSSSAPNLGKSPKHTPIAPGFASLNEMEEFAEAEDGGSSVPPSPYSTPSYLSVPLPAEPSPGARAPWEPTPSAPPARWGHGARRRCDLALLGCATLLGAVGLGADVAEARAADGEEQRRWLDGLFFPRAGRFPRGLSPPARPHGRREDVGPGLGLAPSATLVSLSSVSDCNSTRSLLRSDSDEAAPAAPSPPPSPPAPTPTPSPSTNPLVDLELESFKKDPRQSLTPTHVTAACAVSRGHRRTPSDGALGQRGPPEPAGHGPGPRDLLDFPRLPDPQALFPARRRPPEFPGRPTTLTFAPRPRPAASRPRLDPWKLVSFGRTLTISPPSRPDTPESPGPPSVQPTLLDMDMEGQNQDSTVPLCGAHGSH

[14] = target: Serine/threonine-protein kinase 4 (Homo sapiens, UniProt Q13043); assay: Inhibition of MST1 (unknown origin)
[15] = target: Serine/threonine-protein kinase Nek2 (Homo sapiens, UniProt P51955); assay: Inhibition of Nek2 (unknown origin)
[16] = target: Serine/threonine-protein kinase pim-2 (Homo sapiens, UniProt Q9P1W9); assay: Inhibition of Pim2 (unknown origin)
[17] = target: Serine/threonine-protein kinase Sgk1 (Homo sapiens, UniProt O00141); assay: Inhibition of SGK1 (unknown origin)
Serine/threonine-protein kinase Sgk1, sequence (O00141 whole entry): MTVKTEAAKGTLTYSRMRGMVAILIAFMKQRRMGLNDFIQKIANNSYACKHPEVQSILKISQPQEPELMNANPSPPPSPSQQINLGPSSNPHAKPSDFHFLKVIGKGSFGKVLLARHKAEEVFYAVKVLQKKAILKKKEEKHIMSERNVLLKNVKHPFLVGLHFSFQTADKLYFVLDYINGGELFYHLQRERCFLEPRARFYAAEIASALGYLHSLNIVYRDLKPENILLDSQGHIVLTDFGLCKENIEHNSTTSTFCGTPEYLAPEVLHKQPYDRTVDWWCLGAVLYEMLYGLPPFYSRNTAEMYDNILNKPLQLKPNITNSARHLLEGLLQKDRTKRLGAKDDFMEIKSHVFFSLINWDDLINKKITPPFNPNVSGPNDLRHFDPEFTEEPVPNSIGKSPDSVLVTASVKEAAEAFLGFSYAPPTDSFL

[18] = target: Activated CDC42 kinase 1 (Homo sapiens, UniProt Q07912); assay: Inhibition of TNK2 (unknown origin)
Activated CDC42 kinase 1, sequence (Q07912 whole entry): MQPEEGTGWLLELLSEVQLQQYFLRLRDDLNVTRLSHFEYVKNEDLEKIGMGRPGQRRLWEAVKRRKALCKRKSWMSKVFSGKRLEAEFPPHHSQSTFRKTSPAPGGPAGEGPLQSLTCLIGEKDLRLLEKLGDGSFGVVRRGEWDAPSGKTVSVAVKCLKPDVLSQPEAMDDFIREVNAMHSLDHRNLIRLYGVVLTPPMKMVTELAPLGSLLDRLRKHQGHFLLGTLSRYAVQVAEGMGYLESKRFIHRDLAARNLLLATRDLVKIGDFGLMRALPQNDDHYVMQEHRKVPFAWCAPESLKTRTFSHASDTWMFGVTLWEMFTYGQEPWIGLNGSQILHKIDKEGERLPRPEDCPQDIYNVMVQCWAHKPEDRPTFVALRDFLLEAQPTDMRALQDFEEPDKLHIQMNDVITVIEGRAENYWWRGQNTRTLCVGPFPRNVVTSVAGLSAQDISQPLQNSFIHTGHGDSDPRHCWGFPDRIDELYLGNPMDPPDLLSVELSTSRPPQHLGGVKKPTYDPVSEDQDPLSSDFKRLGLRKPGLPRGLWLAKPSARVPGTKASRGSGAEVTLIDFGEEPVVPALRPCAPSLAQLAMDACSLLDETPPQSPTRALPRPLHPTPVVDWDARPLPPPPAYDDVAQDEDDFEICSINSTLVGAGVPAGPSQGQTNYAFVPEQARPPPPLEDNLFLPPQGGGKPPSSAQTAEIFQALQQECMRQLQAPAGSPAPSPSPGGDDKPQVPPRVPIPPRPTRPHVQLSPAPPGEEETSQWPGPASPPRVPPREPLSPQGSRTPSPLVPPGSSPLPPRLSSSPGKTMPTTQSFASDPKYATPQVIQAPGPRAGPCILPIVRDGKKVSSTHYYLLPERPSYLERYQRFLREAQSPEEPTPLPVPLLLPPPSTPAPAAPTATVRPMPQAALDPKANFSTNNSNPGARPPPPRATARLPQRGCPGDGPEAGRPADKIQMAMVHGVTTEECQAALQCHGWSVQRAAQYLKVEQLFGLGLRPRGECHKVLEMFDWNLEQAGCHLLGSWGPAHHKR

[19] = target: Tyrosine-protein kinase receptor TYRO3 (Homo sapiens, UniProt Q06418); assay: Inhibition of TYRO3 (unknown origin)
[20] = test system: HCC2935; assay: Antiproliferative activity against human HCC2935 cells assessed as inhibition of cell viability incubated for 3 to 5 days by Celltiter-Glo luminescent assay; type: functional, cell-based
[21] = test system: LNCaP-Clone-FGC; assay: Antiproliferative activity against human LNCaP-Clone-FGC cells assessed as inhibition of cell viability incubated for 3 to 5 days by Celltiter-Glo luminescent assay; type: functional, cell-based
[22] = test system: MeWo; assay: Antiproliferative activity against human MeWo cells assessed as inhibition of cell viability incubated for 3 to 5 days by Celltiter-Glo luminescent assay; type: functional, cell-based
[23] = test system: Hs 294T; assay: Antiproliferative activity against human Hs294T cells assessed as inhibition of cell viability incubated for 3 to 5 days by Celltiter-Glo luminescent assay; type: functional, cell-based
[24] = test system: NCI-H69; assay: Antiproliferative activity against human NCI-H69 cells assessed as inhibition of cell viability incubated for 3 to 5 days by Celltiter-Glo luminescent assay; type: functional, cell-based
[25] = test system: NCI-H1048; assay: Antiproliferative activity against human NCI-H1048 cells assessed as inhibition of cell viability incubated for 3 to 5 days by Celltiter-Glo luminescent assay; type: functional, cell-based
[26] = test system: EMT6; assay: Antiproliferative activity against mouse EMT6 cells assessed as inhibition of cell viability incubated for 3 to 5 days by Celltiter-Glo luminescent assay; type: functional, cell-based
[27] = test system: MDA-MB-157; assay: Antiproliferative activity against human MDA-MB-157 cells assessed as inhibition of cell viability incubated for 3 to 5 days by Celltiter-Glo luminescent assay; type: functional, cell-based
[28] = test system: HCC1937; assay: Antiproliferative activity against human HCC1937 cells assessed as inhibition of cell viability incubated for 3 to 5 days by Celltiter-Glo luminescent assay; type: functional, cell-based
[29] = test system: HCC1395; assay: Antiproliferative activity against human HCC1395 cells assessed as inhibition of cell viability incubated for 3 to 5 days by Celltiter-Glo luminescent assay; type: functional, cell-based
[30] = test system: HCC38; assay: Antiproliferative activity against human HCC38 cells assessed as inhibition of cell viability incubated for 3 to 5 days by Celltiter-Glo luminescent assay; type: functional, cell-based
[31] = test system: MM1.S; assay: Antiproliferative activity against human MM1.S cells assessed as inhibition of cell viability incubated for 3 to 5 days by Celltiter-Glo luminescent assay; type: functional, cell-based
[32] = test system: NCI-H929; assay: Antiproliferative activity against human NCI-H929 cells assessed as inhibition of cell viability incubated for 3 to 5 days by Celltiter-Glo luminescent assay; type: functional, cell-based
[33] = test system: BJAB; assay: Antiproliferative activity against human BJAB cells assessed as inhibition of cell viability incubated for 3 to 5 days by Celltiter-Glo luminescent assay; type: functional, cell-based
[34] = test system: DOHH-2; assay: Antiproliferative activity against human DOHH-2 cells assessed as inhibition of cell viability incubated for 3 to 5 days by Celltiter-Glo luminescent assay; type: functional, cell-based
[35] = test system: SU-DHL-5; assay: Antiproliferative activity against human SuDHL5 cells assessed as inhibition of cell viability incubated for 3 to 5 days by Celltiter-Glo luminescent assay; type: functional, cell-based
[36] = test system: SU-DHL10; assay: Antiproliferative activity against human Su-DHL-10 cells assessed as inhibition of cell viability incubated for 3 to 5 days by Celltiter-Glo luminescent assay; type: functional, cell-based
[37] = test system: OCI-Ly1; assay: Antiproliferative activity against human OCI-Ly1 cells assessed as inhibition of cell viability incubated for 3 to 5 days by Celltiter-Glo luminescent assay; type: functional, cell-based
[38] = test system: SU-DHL-2; assay: Antiproliferative activity against human SUDHL2 cells assessed as inhibition of cell viability incubated for 3 to 5 days by Celltiter-Glo luminescent assay; type: functional, cell-based
[39] = test system: GA-10; assay: Antiproliferative activity against human GA-10 cells assessed as inhibition of cell viability incubated for 3 to 5 days by Celltiter-Glo luminescent assay; type: functional, cell-based
[40] = test system: KARPAS-299; assay: Antiproliferative activity against human KARPAS-299 cells assessed as inhibition of cell viability incubated for 3 to 5 days by Celltiter-Glo luminescent assay; type: functional, cell-based
[41] = Half life in CB17 SCID mouse xenografted with LuCaP-77 CR cell at 50 mg/kg, ip administered for 7 days; type: ADME, organism-based; settings: in vivo, time 7 day

Tyrosine-protein kinase ABL1, sequence (P00519 whole entry): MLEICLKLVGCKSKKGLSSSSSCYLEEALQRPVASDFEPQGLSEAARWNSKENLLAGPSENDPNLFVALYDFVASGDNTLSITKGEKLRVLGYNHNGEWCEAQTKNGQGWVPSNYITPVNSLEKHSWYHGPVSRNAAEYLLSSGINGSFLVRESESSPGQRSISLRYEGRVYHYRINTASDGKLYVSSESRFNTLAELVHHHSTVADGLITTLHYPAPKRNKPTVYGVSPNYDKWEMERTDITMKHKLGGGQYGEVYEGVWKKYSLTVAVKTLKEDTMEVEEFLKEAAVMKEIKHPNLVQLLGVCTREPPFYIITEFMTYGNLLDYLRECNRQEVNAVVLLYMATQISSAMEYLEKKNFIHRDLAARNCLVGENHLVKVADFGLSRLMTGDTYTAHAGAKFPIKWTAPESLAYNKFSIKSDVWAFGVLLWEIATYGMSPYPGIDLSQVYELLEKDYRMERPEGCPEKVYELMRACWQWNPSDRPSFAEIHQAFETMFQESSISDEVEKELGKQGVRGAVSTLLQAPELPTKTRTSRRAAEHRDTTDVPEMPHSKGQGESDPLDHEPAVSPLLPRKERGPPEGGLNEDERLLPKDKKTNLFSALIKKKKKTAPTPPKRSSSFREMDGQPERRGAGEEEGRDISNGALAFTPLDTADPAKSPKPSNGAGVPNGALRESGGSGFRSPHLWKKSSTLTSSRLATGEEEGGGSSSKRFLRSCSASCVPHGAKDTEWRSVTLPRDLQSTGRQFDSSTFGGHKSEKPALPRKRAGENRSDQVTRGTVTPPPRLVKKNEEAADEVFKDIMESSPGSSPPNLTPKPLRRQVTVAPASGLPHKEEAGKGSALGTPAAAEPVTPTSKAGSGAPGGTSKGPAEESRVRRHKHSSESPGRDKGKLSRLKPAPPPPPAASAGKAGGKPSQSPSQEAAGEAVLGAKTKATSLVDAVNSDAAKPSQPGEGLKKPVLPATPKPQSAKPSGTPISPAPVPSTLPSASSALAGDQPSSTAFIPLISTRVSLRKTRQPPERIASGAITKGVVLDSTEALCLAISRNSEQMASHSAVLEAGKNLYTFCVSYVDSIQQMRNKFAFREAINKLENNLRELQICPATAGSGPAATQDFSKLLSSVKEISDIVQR

CNC(=O)Nc1ccc2c(c1)CC[C@@]21OC(=O)N(CC(=O)N(Cc2ccc(F)cc2)[C@@H](C)C(F)(F)F)C1=O [A-485]
IC50 [1]: > 10 µM | IC50 [2]: > 10 µM | IC50 [3]: > 10 µM | IC50 [4]: > 10 µM | IC50 [5]: > 10 µM | IC50 [6]: > 10 µM | IC50 [7]: > 10 µM | IC50 [8]: > 10 µM | IC50 [9]: > 10 µM | IC50 [10]: > 10 µM | IC50 [11]: > 10 µM | IC50 [12]: > 10 µM | IC50 [13]: > 10 µM | IC50 [14]: > 10 µM | IC50 [15]: > 10 µM | IC50 [16]: > 10 µM | IC50 [17]: > 10 µM | IC50 [18]: > 10 µM | IC50 [19]: > 10 µM | EC50 [20]: > 10 µM | EC50 [21]: 0.26 µM | EC50 [22]: 2.43 µM | EC50 [23]: 9 µM | EC50 [24]: > 10 µM | EC50 [25]: > 10 µM | EC50 [26]: 0.5 µM | EC50 [27]: 4.59 µM | EC50 [28]: > 10 µM | EC50 [29]: > 10 µM | EC50 [30]: > 10 µM | EC50 [31]: 0.18 µM | EC50 [32]: 0.33 µM | EC50 [33]: 0.28 µM | EC50 [34]: 0.75 µM | EC50 [35]: 0.76 µM | EC50 [36]: 0.92 µM | EC50 [37]: 0.94 µM | EC50 [38]: 0.95 µM | EC50 [39]: 1.06 µM | EC50 [40]: > 10 µM | half-life [41]: 1.9 h

Source: ChEMBL document CHEMBL5649168, “Discovery of a selective catalytic p300/CBP inhibitor that targets lineage-specific tumours” (Nature, 2017)
